{"source": "patent US12060310B2", "about": "“Compositions and methods of using itaconic acid derivatives” (ERGON PHARMACEUTICALS, LLC, priority 2018, dated 2024)", "key": {"[1]": {"test_system": "C6-IRG1-9 rat glioma cells", "test": "C6-IRG1-9 rat glioma cell proliferation (CyQuant)", "format": "cell-based", "conditions": "various concentrations, 48 hrs; FIG. 3", "procedure": "Tumor Cell Proliferation Assay. This assay was used to assess the anti-tumor properties of a therapeutic agent in vitro. In a typical proliferation assay, cells were cultured to near confluency in the appropriate media. Subsequently, the cells were trypsinized and plated onto 96-well plates at 2,000 or 5,000 cell per well. The cells were cultured for 48 to 96 hours in the presence or absence of the therapeutic agent. Cell proliferation was then determined using spectrophotometry (MTT assay, BrdU assay) or fluorimetry (Cyquant assay).\nInhibition of C6-IRG1-9 Rat Glioma cell proliferation. C6-IRG1-9 cells are rat C6 glioma cells that have been transfected to overexpress IRG1. Overexpression of IRG1 is maintained by culturing the cells in DMEM media containing 0.55 μg/mL puromycin. For the proliferation assays, the cells were plated onto a 96-well plate at a density of 2,000 cells/well. The cells were allowed to adhere overnight; they were subsequently treated with various concentrations of compounds of Formula (2) for 48 hrs. At the end of the incubation period, the number of cells is assessed using the CyQuant Cell Proliferation kit (Thermo Fisher) according to the manufacturer's instructions. The results, shown in FIG. 3, indicate that compounds of Formula (2) are able to reduce or abrogate growth of C6-IRG1-9 cells. In FIG. 3, cell proliferation is expressed as % Untreated Control, defined as: (t−s)*100/(c−s), where t is the number of cells present in a treated well at the end of the incubation period, c is the number of cells present in an untreated well at the end of the incubation period, and s is the initial number of cells in the wells prior to initiation of treatment."}, "[2]": {"test_system": "TNFα secretion from LPS-stimulated human monocyte derived macrophages (hMDMs)", "test": "Inhibition of TNFα secretion (in vitro inflammation assay), ELISA", "format": "cell-based", "conditions": "1 μg/mL LPS, 6 h, concentrations ≥500 μM, FIG. 2", "procedure": "In Vitro Inflammation Assay. In vitro inflammation was assessed by measuring the concentration of TNFα in the conditioned media of macrophages stimulated with 0.1-1 μg/mL LPS in the presence or absence of the compound of interest after 4-6 hrs.\nInhibition of TNFα secretion. hMDMs were pretreated with various concentrations of Compound (6) for 15 min and then stimulated with 1 μg/mL LPS. Conditioned media were collected 6 h later and TNFα concentrations were determined by ELISA."}, "[3]": {"test_system": "TCR-activated hCD8+ T cells", "test": "hCD8+ T cell differentiation into effector T cells (IFNγ and GZMB release, ELISA)", "format": "cell-based, human", "procedure": "Differentiation of T Cells. The ability of T cells to differentiate from a naïve to an effector state was assessed by measuring the levels of IFNγ or GZMB synthesis following activation of the cells using a cocktail of anti-CD2/anti-CD3/anti-CD28 antibodies. Expression of IFNγ, GZMB, and other effector cytokines was measured by determining their concentration in the conditioned media 24-72 hrs after initiation of activation or by estimating the % cells expressing these cytokines using fluorescence-activated cell sorting (FACS).\nAugmentation of hCD8^+ T Cell Differentiation into Effector T Cells. Naïve CD8+ T cells were isolated from human buffy coats using magnetic separation and the appropriate kit from Miltenyi Biotec. Cells were then activated using a cocktail of anti-CD2/anti-CD3/anti-CD28 antibodies. Differentiation of the cells into effector T cells was assessed by determining the levels of IFNγ and GZMB released into the media at 24 and 72 hrs, respectively using appropriate ELISA kits. Cytokine concentrations were normalized per number of cells present and expressed as % Untreated Control."}, "[4]": {"test_system": "trimethylated lysine site 4 of histone 3 (H3K4me3)", "test": "Epigenetic modification, Western immunoblotting of H3K4me3", "format": "cell-based, human", "conditions": "10 μM, 72 hrs, TCR-activated hCD8+ T cells; FIG. 5", "procedure": "Epigenetic Modifications. The ability of a therapeutic agent to alter acetylation and/or methylation of histones was assessed by Western Immunoblotting. Briefly, immune and other type cells were collected after being exposed to the therapeutic agent or vehicle control for a specific period of time, typically 24-72 hrs. They were then lysed and cell lysates from control and treated cells contained equal amounts of proteins were subjected to SDS-PAGE electrophoresis. The presence of acetylated and methylated histone sites was determined by Western Immunoblotting using appropriate antibodies.\nEpigenetic Modification. TCR-activated hCD8^+ T cells were exposed to 0 or 10 µM Compound (6) for 72 hrs prior to lysing. Equal amounts of cell lysates were subjected to gel electrophoresis and Western immunoblotting against trimethylated lysine site 4 of histone 3 (H3K4me3). The experiment also included cell lysates from naïve cells. Image J was used for protein quantification. Western immunoblotting against histone 3 (H3) was also performed for normalization purposes. […] Exposure of the hCD8^+ T cells to 10 μM Compound (6) led to the depletion of trimethylated H3K4. H3K4me3 is commonly associated with activation of transcription."}, "[5]": {"test_system": "TCR-activated hCD8+ T cells", "test": "CD8+ T cell proliferation (CFSE dilution, flow cytometry)", "format": "cell-based, human", "conditions": "10 nM; versus untreated TCR-activated control cells; FIG. 4", "procedure": "Augmentation of CD8^+ T Cell Proliferation. Naïve hCD8^+ T cells were isolated from commercially available buffy coats using magnetic separation and the appropriate kit from Miltenyi Biotec. Cells were then subject to TCR activation using a cocktail of anti-CD2/anti-CD3/anti-CD28 antibodies. Untreated control and treated cells were included in the experiment. The cells were cultured for 72 hrs in TexMACS media (Miltenyi Biotec) without IL-2 and for an additional 48 hrs in TexMACS media containing 20 U human IL-2/mL. Cell division was assessed by flow cytometry using the carboxyfluorescein succimidyl ester (CFSE) dilution method."}, "[6]": {"test_system": "CT26 mouse colorectal tumors", "test": "Survival of CT26 tumor-bearing mice (in vivo anti-tumor effect)", "procedure": "In Vivo Anti-Tumor Effect. The anticancer properties of the therapeutic agent were evaluated in vivo by determining the ability of the agent to suppress tumor growth and/or increase survival of tumor-bearing animals. In a typical experiment, 0.1-1×10^6 tumor cells, suspended in PBS containing 20% Matrigel, were injected subcutaneously in the right flank of each mouse. When the tumors became palpable, the animals were randomized into different groups and treatment began. In vivo tests routinely included a vehicle control group and different doses and/or routes of administration of the therapeutic agent. Tumor growth was assessed using calipers and the following formula: Tumor Volume=length×width×width×½\nThe Kaplan-Meier analysis was used to estimate the survival probability of the tumor-bearing animals.\nC57BL/6 mice were injected subcutaneously in the right flank with 1×10^5 CT26 mouse colorectal tumor cells, suspended in PBS containing 20% Matrigel. The tumors were allowed to grow to ˜100 mm^3. The mice were randomized into two groups (n=6 animals/group): one group received vehicle control and the other group was treated with i.p. injections of 0.2 mg/kg Compound (6) twice a week (Tuesday-Thursday). The experiment continued for 27 days, at which point the mortality rate of control animals was 80%. […] The experiment was repeated (FIG. 6B). In FIG. 6B, treated animals received oral administrations of 3 mg/kg Compound (6) twice a day."}, "IRG1": {"target": "T1, IRG1 (Homo sapiens, UniProt A6NK06)", "T1 construct": "Human monocytes, isolated from peripheral blood and differentiated into macrophages; endogenous in cells; host or cells: human monocyte-derived macrophages (hMDMs), M-CSF differentiated, LPS stimulated", "T1 sequence (A6NK06 1-481)": "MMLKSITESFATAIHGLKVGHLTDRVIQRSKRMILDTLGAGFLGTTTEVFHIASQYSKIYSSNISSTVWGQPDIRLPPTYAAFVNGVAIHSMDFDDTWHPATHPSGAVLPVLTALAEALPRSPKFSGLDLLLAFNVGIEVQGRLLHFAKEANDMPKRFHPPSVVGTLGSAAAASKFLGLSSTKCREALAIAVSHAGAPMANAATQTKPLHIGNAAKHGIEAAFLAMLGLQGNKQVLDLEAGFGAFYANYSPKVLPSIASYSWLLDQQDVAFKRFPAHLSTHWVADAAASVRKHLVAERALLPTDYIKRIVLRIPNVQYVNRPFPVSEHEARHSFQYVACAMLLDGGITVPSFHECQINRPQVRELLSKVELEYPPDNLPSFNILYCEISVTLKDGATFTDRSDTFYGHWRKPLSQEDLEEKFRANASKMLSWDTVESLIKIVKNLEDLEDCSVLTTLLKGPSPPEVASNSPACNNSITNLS", "test": "Itaconic acid synthesis by LPS-stimulated macrophages (inhibition of IRG1), GC-MS", "format": "cell-based", "conditions": "LPS-stimulated hMDMs; pretreated 50, 100, 500 μM for 15 min, LPS 8 hrs; FIG. 1", "procedure": "Inhibition of IRG1. Itaconic acid levels are a measure of IRG1 expression/activity. To determine the activity of IRG, hMDMs were stimulated with 100 ng/ml LPS for 8 hrs in the presence or absence of the therapeutic agent. Gas chromatography-mass spectroscopy (GC-MS) was used to estimate the intracellular and extracellular concentration of the itaconic acid. In a typical assay, 1-5×10^6 cells were plated onto a 6-well plate and allowed to adhere overnight. The cells were then stimulated with 0.1-1 μg/mL LPS in the presence or absence of the compound of interest for 8 hrs. The cells were then washed and metabolites were extracted using methanol/water and acetonitrile additions. The aqueous phase of the mixture was dried and metabolites present were derivatized prior to the detection by GC-MS.\nItaconic Acid Synthesis by LPS-Stimulated Macrophages after Treatment with Compound (6). Human monocytes, isolated from peripheral blood and differentiated into macrophages in the presence of 100 ng/ml monocyte colony-stimulating factor (M-CSF) for 5 days, were plated onto a 6-well plate at a density of 1×10^6 cells/well. The cells were allowed to adhere overnight. […] Derivatized metabolites were analyzed by GC-MS. The amount of itaconic acid present in the samples was determined after peak integration. […]"}, "M-MDSCs in CT26 tumors": {"test_system": "M-MDSCs in CT26 tumors", "test": "Tumor immunophenotyping of CT26 tumors (MDSCs)", "format": "in vivo, mouse", "conditions": "0.2 mg/kg ip, twice a day; tumors 250-1500 mm^3; FIG. 7", "procedure": "Tumor Immunophenotyping. To determine the effect of a therapeutic agent on a specific immune cell type in vivo, syngeneic tumor models were employed. In a typical experiment, tumors were allowed to grow to a certain size and were then treated for a specific number of days prior to termination. At the end of the experiment, animals were euthanized, tumors were excised and single cell suspensions were immediately obtained through dissociation of tumor tissues with collagenase. Tumor cell suspensions were then subject to FACS analysis in order to determine the presence of various biomarkers.\nTumor Immunophenotyping of CT26 Tumors. CT26-tumor bearing mice treated with either vehicle control or 0.2 mg/kg Compound (6) (ip, twice a day) were euthanized when the tumors had reached a size of 250-1500 mm^3. Tumors were excised and single cell suspensions were obtained using the tumor dissociation kit from Miltenyi Biotec per manufacturer's instructions. The suspensions were analyzed for the presence of MDSCs."}, "[7]": {"conditions": "3 mg/kg oral twice a day, end of experiment"}}, "note": "Entries after “also recorded” stand apart in the source; their conditions may differ.", "data": [{"smiles": "CC(C)=C(CC(=O)O)C(=O)O", "note": "[(3), 2-(propan-2-ylidene)butanedioic acid]", "values": [{"measurement": "cell proliferation of C6-IRG1-9 cells", "setting": "[1]", "value": "inhibition of proliferation"}]}, {"smiles": "O=C(O)CC(=Cc1ccccc1)C(=O)O", "note": "[(4), 2-(phenylmethylidene)butanedioic acid]", "values": [{"measurement": "cell proliferation of C6-IRG1-9 cells", "setting": "[1]", "value": "inhibition of proliferation"}]}, {"smiles": "C=CCC(C(=O)O)/C(=C/c1ccc(F)cc1)C(=O)O", "note": "(stereo not drawn) [(7), 2-[(4-flurophenyl)methylidene]-3-(prop-2-ene-1-yl)butanedioic acid]", "values": [{"measurement": "cell proliferation of C6-IRG1-9 cells", "setting": "[1]", "value": "inhibition of proliferation"}]}, {"smiles": "O=C(O)CC(=Cc1ccc(F)cc1)C(=O)O", "note": "[Compound (5), 2-[(4-fluorophenyl)methylidene]butanedioic acid]", "values": [{"measurement": "cell proliferation of C6-IRG1-9 cells", "setting": "[1]", "value": "inhibition of proliferation"}]}, {"smiles": "O=C(O)/C(=C\\c1ccc(F)cc1)C(Cc1ccccc1)C(=O)O", "note": "(stereo not drawn) [Compound (6), 2-benzyl-3-[(4-flurophenyl)methylidene]butanedioic acid]", "values": [{"measurement": "secretion of TNFα", "setting": "[2]", "value": "inhibits in vitro inflammation; also recorded: reduced secretion"}, {"measurement": "IFNγ synthesis", "setting": "[3]; high (>100 μM) concentrations", "value": "decrease"}, {"measurement": "production of GZMB", "setting": "[3]; low concentrations", "value": "increase production"}, {"measurement": "synthesis of INFγ following TCR activation", "setting": "[3]; low concentrations, range of 0.1 nM to 100 µM", "value": "increased synthesis"}, {"measurement": "cell proliferation of C6-IRG1-9 cells", "setting": "[1]", "value": "inhibition of proliferation"}, {"measurement": "trimethylated H3K4 (H3K4me3/H3 ratio)", "setting": "[4]", "value": "depletion"}, {"measurement": "proliferation of hCD8+ T cells", "setting": "[5]", "value": "increased proliferation"}, {"measurement": "survival (Kaplan-Meier) of CT26 tumor-bearing mice", "setting": "[6]; 0.2 mg/kg i.p. twice a week, 27 days, versus vehicle control, FIG. 6A", "value": "survival advantage"}, {"measurement": "animals with complete tumor regression", "setting": "[6]; [7]", "value": "⅙"}, {"measurement": "mice exhibiting slower tumor growth", "setting": "[6]; [7]", "value": "⅚"}, {"measurement": "survival of CT26 tumor-bearing mice", "setting": "[6]; 3 mg/kg orally twice a day, FIG. 6B", "value": "increased survival"}, {"measurement": "extracellular levels of itaconic acid", "setting": "IRG1", "value": "suppressed"}, {"measurement": "intracellular levels of itaconic acid", "setting": "IRG1", "value": "suppressed"}, {"measurement": "intratumoral frequency of M-MDSCs", "setting": "M-MDSCs in CT26 tumors", "value": "significantly reduces"}]}]}
